Measured values: patent publication US9920025B2, “Antibiotic” (Koninklijke Nederlandse Akademie Van Wetenschappen, priority 2014, dated 2018)

Key:
[1] = tested on: Acinetobacter calcoaceticus (15A600), NCCB 100514; experiment: Antibiotic activity of purified fraction (broth growth inhibition, serial dilution); type: cell-based; details: Gram−, no effect at highest concentration
Experimental: (§1) Preferably the compound of the invention has antimicrobial or antibiotic activity, more preferably antibacterial activity. Antimicrobial or antibacterial activity can be assessed by a suitable assay known by the person skilled in the art, preferably by a growth inhibition assay as exemplified herein. Preferably growth inhibition is assessed by culturing bacteria are cultured in the presence or absence of the antibacterial compound o/n at 37° C. in Luria Broth (LB). The read-out of the assay is by eye, if the bacteria have visibly grown, the sample is scored as non-inhibitory. If the broth is completely clear, the sample is scored as inhibitory.
(§2) Bacteria are cultured o/n at 37° C. in Luria Broth (LB). This culture is diluted 100× in fresh LB. This fresh culture is then used to test the filtrate and extract. The filtrate was tested in serial dilutions starting at 2× and further diluted with a factor 2 until 256×. The extract was tested starting at 10× dilution and further diluted with a factor 2 until 1280×. The bacteria with filtrate or extract were incubated o/n at 37° C. The read-out of the assay is by eye, if the bacteria have visibly grown, the sample is scored as non-inhibitory. If the broth is completely clear, the sample is scored as inhibitory.
(§3) The 95 fractions collected were pooled per 6 and the pooled fractions were dried in a speed-vac o/n. The fraction residues were dissolved in 1 ml 5% DMSO and tested on E. faecium (15A623) in serial dilutions starting at 2×. […] 1 ml of each fraction was dried in a speed-vac o/n and each fraction residue was dissolved in 1 ml 5% DMSO to be tested on E. faecium. […] The fraction was then tested on 19 additional strains of bacteria (Table 3).

[2] = tested on: Enterococcus faecium(15A623); experiment: as above; type: cell-based
Experimental: as §1, §2, §3

[3] = tested on: Enterococcus faecium(16D030); experiment: as above; type: cell-based; details: Gram+
Experimental: as §1, §2, §3

Escherichia coli (CP131) = experiment: as above; type: cell-based; details: ESBL SHV-3, Gram−, no effect at highest concentration
Experimental: as §1, §2, §3

Escherichia coli (JS004) = experiment: as above; type: cell-based; details: ESBL TEM-3, Gram−, no effect at highest concentration
Experimental: as §1, §2, §3

Escherichia coli (JS203) = experiment: as above; type: cell-based; details: ESBL CTX-M-1, Gram−, no effect at highest concentration
Experimental: as §1, §2, §3

[4] = tested on: Klebsiella pneumonia (CP14); experiment: as above; type: cell-based; details: ESBL TEM-18, Gram−, no effect at highest concentration
Experimental: as §1, §2, §3

[5] = tested on: Klebsiella pneumonia (JS006); experiment: as above; type: cell-based; details: ESBL SHV-18, Gram−, no effect at highest concentration
Experimental: as §1, §2, §3

[6] = tested on: Klebsiella pneumonia (JS264); experiment: as above; type: cell-based; details: ESBL CTX-M-15, Gram−, no effect at highest concentration
Experimental: as §1, §2, §3

[7] = tested on: Klebsiella pneumoniae (MR44); experiment: as above; type: cell-based; details: Gram−, no effect at highest concentration
Experimental: as §1, §2, §3

[8] = tested on: Listeria monocytogenes (41-4a); experiment: as above; type: cell-based; details: Gram+
Experimental: as §1, §2, §3

[9] = tested on: Methicillin-resistant Staphylococcus aureus (MRSA) ST8: USA300 (S1474) FPR3757, NARSA collection NRS482; experiment: as above; type: cell-based; details: Gram+
Experimental: as §1, §2, §3

[10] = tested on: Methicillin-sensitive Staphylococcus aureus 476 (S0101), ATCC BAA-1721; experiment: as above; type: cell-based; details: Gram+
Experimental: as §1, §2, §3

[11] = tested on: Pseudomonas aeruginosa (04A191), NCCB 100515; experiment: as above; type: cell-based; details: Gram−, no effect at highest concentration
Experimental: as §1, §2, §3

[12] = tested on: Staphylococcus epidermidis (08A1071); experiment: as above; type: cell-based; details: Gram+
Experimental: as §1, §2, §3

[13] = tested on: Stenotrophomonas maltophilia (20A226), NCCB 100516; experiment: as above; type: cell-based; details: Gram−, no effect at highest concentration
Experimental: as §1, §2, §3

[14] = tested on: Streptococcus group A (23M092); experiment: as above; type: cell-based; details: Gram+
Experimental: as §1, §2, §3

[15] = tested on: Streptococcus group B (05A396); experiment: as above; type: cell-based; details: Gram+
Experimental: as §1, §2, §3

[16] = tested on: Streptococcus pneumoniae (14B186); experiment: as above; type: cell-based; details: Gram+
Experimental: as §1, §2, §3

Listeria monocytogenes = experiment: Growth kinetics (time-kill curves); type: cell-based; details: 50, 100 and 200 μg/ml, 37° C., 24 hrs
Experimental: (§4) Also preferred is a growth kinetic assay the effect of the compound of interest is assessed in time on growth of bacterial isolates on blood-agar plates, as known by the person skilled in the art. In brief, liquid cultures are inoculated in Mueller-Hinton Broth and incubated at 37° C. o/n. The o/n cultures were used to prepare a 0.05-0.1 McFarland suspension in Mueller Hinton Broth, which are incubated at 37° C. until 0.5 McFarland ([…]). These suspensions are used to inoculate 5 ml pre-warmed Mueller-Hinton Broth with approximately 1.5×10^5 CFU/ml with the appropriate antibiotic compound of interest. Directly after addition of the bacterial suspension a 0.25 ml sample is taken. Further 0.25 ml samples are taken after 1, 3, 6 and 24 hrs, which are added to 2.25 ml physiological salt solution. This suspension is used to prepare plates for CFU determination. The lower limit of detection is 40 CFU/ml. Bacterial suspension without antibiotics is preferably checked for normal growth after 24 hrs. A compound is understood herein as having antibacterial activity if at least 3 log10 reduction of CFU in the growth kinetics assay as passed after 1, 3, 6 or preferably 24 hours.
(§5) After elucidating the structure, we studied the growth kinetics of several Gram+bacteria in the presence of 50, 100 and 200 μg/ml of the compound of formula (I), in order to determine whether the compound was bacteriostatic or bactericidal. The bacteria were cultured at 37° C. for 24 hrs (with the exception of Streptococcus Pneumoniae which was cultured until 6 hrs) in the presence of the compound and samples were taken for colony counting at 0, 1, 3, 6 and 24 hrs.
(§6) More specifically, bacterial isolates as indicated below were grown on blood-agar plates. Liquid cultures were inoculated in Mueller-Hinton Broth and incubated at 37° C. o/n. The o/n cultures were used to prepare a 0.05-0.1 McFarland suspension in Mueller Hinton Broth, which was incubated at 37° C. until 0.5 McFarland ([…]). These suspensions were used to inoculate 5 ml pre-warmed Mueller-Hinton Broth with approximately 1.5×10^5 CFU/ml with the appropriate antibiotic and antibiotic concentration. Directly after addition of the bacterial suspension a 0.25 ml sample was taken. Further 0.25 ml samples were taken after 1, 3, 6 and 24 hrs. Samples were added to 2.25 ml physiological salt solution. This suspension was used to prepare plates for CFU determination. The lower limit of detection was 40 CFU/ml. Bacterial suspension without antibiotics was checked for normal growth after 24 hrs. Efficient bactericidal activity is defined as at least 3 log10 reduction of CFU.
(§7) The bacteria tested were two strains of Enterococcus faecium (FIGS. 2A and 2B), MRSA USA300 (FIG. 2C), MSSA (FIG. 2D), Staphylococcus epidermidis (FIG. 2E), Listeria monocytogenes (FIG. 2F), Streptococcus group A (FIG. 2G), Streptococcus group B (FIG. 2H) and Streptococcus pneumoniae (FIG. 2I).

[17] = tested on: Staphylococcus epidermidis; experiment: Growth kinetics (time-kill curves); type: cell-based; details: 50, 100 and 200 μg/ml, 37° C., 24 hrs
Experimental: as §4, §5, §6, §7

Streptococcus Group A = experiment: Growth kinetics (time-kill curves); type: cell-based; details: 50, 100 and 200 μg/ml, 37° C., 24 hrs
Experimental: as §4, §5, §6, §7

Streptococcus Group B = experiment: Growth kinetics (time-kill curves); type: cell-based; details: 50, 100 and 200 μg/ml, 37° C., 24 hrs, bactericidal = at least 3 log10 reduction of CFU
Experimental: as §4, §5, §6, §7

Streptococcus pneumoniae = experiment: Growth kinetics (time-kill curves); type: cell-based; details: 50, 100 and 200 μg/ml, 37° C., cultured until 6 hrs
Experimental: as §4, §5, §6, §7

E. faecium (15A623) = experiment: Growth kinetics (time-kill curves); type: cell-based, Enterococcus faecium; details: 50, 100 and 200 μg/ml, 37° C., 24 hrs
Experimental: as §4, with “hours. […]” for “hours.”

E. faecium (16D030) = experiment: Growth kinetics (time-kill curves); type: cell-based, Enterococcus faecium; details: 50, 100 and 200 μg/ml, 37° C., 24 hrs
Experimental: as §4, with “hours. […]” for “hours.”

MRSA USA300 = experiment: Growth kinetics (time-kill curves); type: cell-based, Staphylococcus aureus; details: 50, 100 and 200 μg/ml, 37° C., 24 hrs
Experimental: as §4, with “hours. […]” for “hours.”

MSSA = experiment: Growth kinetics (time-kill curves); type: cell-based, Staphylococcus aureus; details: 50, 100 and 200 μg/ml, 37° C., 24 hrs
Experimental: as §4, with “hours. […]” for “hours.”

SMILES: CC1CCC(=O)/C=C/C(=O)O1 (stereo not drawn) [compound of formula (I), (E)-8-methyl-7,8-dihydro-2H-oxocine-2,5(6H)-dione]
- Minimal concentration for antibacterial activity [1]: No effect at 1.5 g/l
- inhibition of bacterial growth by HPLC fractions ([2]; E. faecium (15A623), residue in 1 ml 5% DMSO, serial dilutions starting at 2×): inhibited bacterial growth
- Minimal concentration for antibacterial activity ([2]; Enterococcus faecium(15A623), Gram+): 37.5 mg/1
- activity against E. faecium (15A623) ([2]; compound of formula (I) and hydrogenated derivative at similar concentrations): active
- Minimal concentration for antibacterial activity [3]: 75.0 mg/1
- Minimal concentration for antibacterial activity (Escherichia coli (CP131)): No effect at 1.5 g/l
- Minimal concentration for antibacterial activity (Escherichia coli (JS004)): No effect at 1.5 g/l
- Minimal concentration for antibacterial activity (Escherichia coli (JS203)): No effect at 1.5 g/l
- Minimal concentration for antibacterial activity [4]: No effect at 1.5 g/l
- Minimal concentration for antibacterial activity [5]: No effect at 1.5 g/l
- Minimal concentration for antibacterial activity [6]: No effect at 1.5 g/l
- Minimal concentration for antibacterial activity [7]: No effect at 1.5 g/l
- Minimal concentration for antibacterial activity [8]: 75.0 mg/1
- Minimal concentration for antibacterial activity [9]: 18.8 mg/L
- Minimal concentration for antibacterial activity [10]: 4.69 mg/L
- Minimal concentration for antibacterial activity [11]: No effect at 1.5 g/l
- Minimal concentration for antibacterial activity [12]: 18.8 mg/L
- Minimal concentration for antibacterial activity [13]: No effect at 1.5 g/l
- Minimal concentration for antibacterial activity [14]: 75.0 mg/1
- Minimal concentration for antibacterial activity [15]: 75.0 mg/1
- Minimal concentration for antibacterial activity [16]: 75.0 mg/1
- bacteriostatic or bactericidal (time-kill curves) (Listeria monocytogenes): bactericidal
- bacteriostatic or bactericidal (time-kill curves) [17]: bactericidal
- bacteriostatic or bactericidal (time-kill curves) (Streptococcus Group A): bactericidal
- bacteriostatic or bactericidal (time-kill curves) (Streptococcus Group B): bacteriostatic
- bacteriostatic or bactericidal (time-kill curves) (Streptococcus pneumoniae): bactericidal
- bacteriostatic or bactericidal (time-kill curves) (E. faecium (15A623)): bacteriostatic
- bacteriostatic or bactericidal (time-kill curves) (E. faecium (16D030)): bacteriostatic
- bacteriostatic or bactericidal (time-kill curves) (MRSA USA300): bactericidal
- bacteriostatic or bactericidal (time-kill curves) (MSSA): bactericidal
